Measured values as given in PubChem BioAssay (NCI).
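Exposure lasted 48 hours, with cells grown in 96-well plates and compounds tested at five concentrations. GI50 marks 50% less growth. TGI: concentration producing complete growth inhibition.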

How the values were obtained:
Experiment in all cases: NCI-60 cell line screen, 48 h
UACC-62 melanoma = test system: UACC-62 melanoma
NCI-H460 lung = test system: NCI-H460 lung
HCC-2998 colon = test system: HCC-2998 colon
NCI-H522 lung = test system: NCI-H522 lung
SN12C renal = test system: SN12C renal
T-47D breast = test system: T-47D breast
HOP-92 NSCLC = test system: HOP-92 NSCLC
LOX IMVI melanoma = test system: LOX IMVI melanoma
HOP-62 NSCLC = test system: HOP-62 NSCLC
SK-MEL-2 melanoma = test system: SK-MEL-2 melanoma
A498 renal = test system: A498 renal
IGROV1 ovarian = test system: IGROV1 ovarian
HT29 colon = test system: HT29 colon
OVCAR-5 ovarian = test system: OVCAR-5 ovarian
HS 578T breast = test system: HS 578T breast
KM12 colon = test system: KM12 colon
MDA-MB-231 breast = test system: MDA-MB-231 breast
CAKI-1 renal = test system: CAKI-1 renal
RPMI-8226 leukemia = test system: RPMI-8226 leukemia
CCRF-CEM leukemia = test system: CCRF-CEM leukemia
HCT-15 colon = test system: HCT-15 colon
MOLT-4 leukemia = test system: MOLT-4 leukemia
MDA-MB-435 = test system: MDA-MB-435
786-0 renal = test system: 786-0 renal
M14 melanoma = test system: M14 melanoma
SF-539 CNS = test system: SF-539 CNS
NCI-H226 lung = test system: NCI-H226 lung
NCI/ADR-RES ovarian = test system: NCI/ADR-RES ovarian
MALME-3M melanoma = test system: MALME-3M melanoma
COLO 205 colon = test system: COLO 205 colon
BT-549 breast = test system: BT-549 breast
SK-MEL-5 melanoma = test system: SK-MEL-5 melanoma
SF-295 CNS = test system: SF-295 CNS
TK-10 renal = test system: TK-10 renal
SR leukemia = test system: SR leukemia
SF-268 CNS = test system: SF-268 CNS
UO-31 renal = test system: UO-31 renal
SK-MEL-28 melanoma = test system: SK-MEL-28 melanoma
OVCAR-4 ovarian = test system: OVCAR-4 ovarian
OVCAR-8 ovarian = test system: OVCAR-8 ovarian
MCF7 breast = test system: MCF7 breast
SNB-75 CNS = test system: SNB-75 CNS
HCT-116 colon = test system: HCT-116 colon
OVCAR-3 ovarian = test system: OVCAR-3 ovarian
SNB-19 CNS = test system: SNB-19 CNS
U251 CNS = test system: U251 CNS
UACC-257 melanoma = test system: UACC-257 melanoma
K-562 leukemia = test system: K-562 leukemia
ACHN renal = test system: ACHN renal
DU-145 prostate = test system: DU-145 prostate
SK-OV-3 ovarian = test system: SK-OV-3 ovarian
A549 NSCLC = test system: A549 NSCLC
SW-620 colon = test system: SW-620 colon
EKVX NSCLC = test system: EKVX NSCLC
PC-3 prostate = test system: PC-3 prostate
HL-60(TB) leukemia = test system: HL-60(TB) leukemia
RXF 393 renal = test system: RXF 393 renal

COCCOc1ccc2ncc(C#Cc3cncc(C(=O)Nc4ccc(CN5CCN(C)CC5)c(C(F)(F)F)c4)c3)n2n1
GI50 (UACC-62 melanoma): 1500 nM | TGI (UACC-62 melanoma): 7660 nM | GI50 (NCI-H460 lung): 708 nM | TGI (NCI-H460 lung): 1470 nM | GI50 (HCC-2998 colon): 1180 nM | TGI (HCC-2998 colon): 7540 nM | GI50 (NCI-H522 lung): 620 nM | TGI (NCI-H522 lung): 1450 nM | GI50 (SN12C renal): 516 nM | TGI (SN12C renal): 3670 nM | GI50 (T-47D breast): 2720 nM | TGI (T-47D breast): 12500 nM | GI50 (HOP-92 NSCLC): 142 nM | TGI (HOP-92 NSCLC): 628 nM | GI50 (LOX IMVI melanoma): 367 nM | TGI (LOX IMVI melanoma): 1040 nM | GI50 (HOP-62 NSCLC): 997 nM | TGI (HOP-62 NSCLC): 4370 nM | GI50 (SK-MEL-2 melanoma): 403 nM | TGI (SK-MEL-2 melanoma): 1130 nM | GI50 (A498 renal): 1170 nM | TGI (A498 renal): 2250 nM | GI50 (IGROV1 ovarian): 351 nM | TGI (IGROV1 ovarian): 2350 nM | GI50 (HT29 colon): 372 nM | TGI (HT29 colon): 3090 nM | GI50 (OVCAR-5 ovarian): 663 nM | TGI (OVCAR-5 ovarian): 6070 nM | GI50 (HS 578T breast): 598 nM | TGI (HS 578T breast): 2640 nM | GI50 (KM12 colon): 14 nM | TGI (KM12 colon): 2720 nM | GI50 (MDA-MB-231 breast): 274 nM | TGI (MDA-MB-231 breast): 1240 nM | GI50 (CAKI-1 renal): 484 nM | TGI (CAKI-1 renal): 2920 nM | GI50 (RPMI-8226 leukemia): 874 nM | TGI (RPMI-8226 leukemia): 2590 nM | GI50 (CCRF-CEM leukemia): 700 nM | TGI (CCRF-CEM leukemia): 4630 nM | GI50 (HCT-15 colon): 549 nM | TGI (HCT-15 colon): 2510 nM | GI50 (MOLT-4 leukemia): 696 nM | TGI (MOLT-4 leukemia): 3730 nM | GI50 (MDA-MB-435): 421 nM | TGI (MDA-MB-435): 4440 nM | GI50 (786-0 renal): 802 nM | TGI (786-0 renal): 1640 nM | GI50 (M14 melanoma): 265 nM | TGI (M14 melanoma): 1130 nM | GI50 (SF-539 CNS): 209 nM | TGI (SF-539 CNS): 3090 nM | GI50 (NCI-H226 lung): 271 nM | TGI (NCI-H226 lung): 1540 nM | GI50 (NCI/ADR-RES ovarian): 1210 nM | TGI (NCI/ADR-RES ovarian): 3410 nM | GI50 (MALME-3M melanoma): 220 nM | TGI (MALME-3M melanoma): 868 nM | GI50 (COLO 205 colon): 529 nM | TGI (COLO 205 colon): 1540 nM | GI50 (BT-549 breast): 1540 nM | TGI (BT-549 breast): 4280 nM | GI50 (SK-MEL-5 melanoma): 1700 nM | TGI (SK-MEL-5 melanoma): 7260 nM | GI50 (SF-295 CNS): 3360 nM | TGI (SF-295 CNS): 12700 nM | GI50 (TK-10 renal): 1590 nM | TGI (TK-10 renal): 5860 nM | GI50 (SR leukemia): 687 nM | TGI (SR leukemia): 2480 nM | GI50 (SF-268 CNS): 787 nM | TGI (SF-268 CNS): 2130 nM | GI50 (UO-31 renal): 622 nM | TGI (UO-31 renal): 3190 nM | GI50 (SK-MEL-28 melanoma): 676 nM | TGI (SK-MEL-28 melanoma): 1720 nM | GI50 (OVCAR-4 ovarian): 840 nM | TGI (OVCAR-4 ovarian): 8450 nM | GI50 (OVCAR-8 ovarian): 874 nM | TGI (OVCAR-8 ovarian): 2220 nM | GI50 (MCF7 breast): 166 nM | TGI (MCF7 breast): 968 nM | GI50 (SNB-75 CNS): 272 nM | TGI (SNB-75 CNS): 1260 nM | GI50 (HCT-116 colon): 227 nM | TGI (HCT-116 colon): 1020 nM | GI50 (OVCAR-3 ovarian): 1090 nM | TGI (OVCAR-3 ovarian): 7440 nM | GI50 (SNB-19 CNS): 3920 nM | TGI (SNB-19 CNS): 15000 nM | GI50 (U251 CNS): 2190 nM | TGI (U251 CNS): 10200 nM | GI50 (UACC-257 melanoma): 1200 nM | TGI (UACC-257 melanoma): 5690 nM | GI50 (K-562 leukemia): 5 nM | TGI (K-562 leukemia): 937 nM | GI50 (ACHN renal): 364 nM | TGI (ACHN renal): 2010 nM | GI50 (DU-145 prostate): 1060 nM | TGI (DU-145 prostate): 4760 nM | GI50 (SK-OV-3 ovarian): 2070 nM | TGI (SK-OV-3 ovarian): 6400 nM | GI50 (A549 NSCLC): 885 nM | TGI (A549 NSCLC): 2610 nM | GI50 (SW-620 colon): 402 nM | TGI (SW-620 colon): 1350 nM | GI50 (EKVX NSCLC): 951 nM | TGI (EKVX NSCLC): 7750 nM | GI50 (PC-3 prostate): 1790 nM | TGI (PC-3 prostate): 8290 nM | GI50 (HL-60(TB) leukemia): 311 nM | TGI (HL-60(TB) leukemia): 1480 nM | GI50 (RXF 393 renal): 733 nM | TGI (RXF 393 renal): 1410 nM
